Reference: ChEMBL document CHEMBL1201862, “PubChem BioAssay data set” (2004)
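Growth conditions: 96-well plates. Treatment: test compound, 48 hours, 5 concentrations. Analysis: linear interpolation between bracketing concentrations; unreached endpoints set to highest concentration. Abbreviation: GI50, concentration required for 50% inhibition of growth.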 Active and inactive are the calls of the source. No stated cut-off is given here; in the data, active = GI50 up to about 1.1 µM and inactive = higher.

Columns and labels:
Experiment in all cases: inhibition of tumour cell growth, NCI panel, 48 h
DLD-1 = test system: DLD-1
DMS-114 = test system: DMS-114
DMS-273 = test system: DMS-273
HOP-18 = test system: HOP-18
KM-20L2 = test system: KM-20L2
LXFL 529 = test system: LXFL 529
RXF 631 = test system: RXF 631
XF498 = test system: XF498

Structure (SMILES) | GI50 (DLD-1) | GI50 (DMS-114) | GI50 (DMS-273) | GI50 (HOP-18) | GI50 (KM-20L2) | GI50 (LXFL 529) | GI50 (RXF 631) | GI50 (XF498)
CCOC(=O)C(=O)Nc1c(C(C)C)cccc1C(C)C | > 100 µM (inactive) | > 100 µM (inactive) | > 100 µM (inactive) | > 100 µM (inactive) | > 100 µM (inactive) | > 100 µM (inactive) | > 100 µM (inactive) | 54.6 µM (inactive)
O=S1(=O)CSc2ccc3ccccc3c2-c2c1ccc1ccccc21 | > 100 µM (inactive) | > 100 µM (inactive) | > 100 µM (inactive) | > 100 µM (inactive) | – | > 100 µM (inactive) | > 100 µM (inactive) | > 100 µM (inactive)
O=[N+]([O-])c1ccc(-c2csc(=[N+]3CCCCC3)s2)cc1 | 18.3 µM (inactive) | 2.13 µM (inactive) | 28.8 µM (inactive) | > 100 µM (inactive) | 6.1 µM (inactive) | 5.93 µM (inactive) | 87.5 µM (inactive) | 19.5 µM (inactive)
[O-][S+]1c2ccccc2N=C(c2ccc3ccccc3c2)CC1c1ccccc1F (centres undefined) | > 100 µM (inactive) | > 100 µM (inactive) | > 100 µM (inactive) | > 100 µM (inactive) | > 100 µM (inactive) | > 100 µM (inactive) | > 100 µM (inactive) | > 100 µM (inactive)
CC(C)(C)CC(C)(C)c1ccc(OCCOCC[N+](C)(C)Cc2ccccc2)cc1 [BENZETHONIUM CHLORIDE] | 4.21 µM (inactive) | 1.15 µM (inactive) | 1.44 µM (inactive) | 2.79 µM (inactive) | 3.89 µM (inactive) | 1.32 µM (inactive) | 11.9 µM (inactive) | 0.377 µM (active)
